These results are taken from ChEMBL document CHEMBL1130638, “Hepatoprotective, superoxide scavenging, and antioxidative activities of aromatic constituents from the bark of Betula platyphylla var. japonica” (1998).

Assay type in all cases: functional
For experiment [1], the species on record is Rattus norvegicus. Put plainly: Compound was tested for O2- scavenging activity using NBT method at a concentration of 20 ug/mL.
For experiment [2], the species on record is Rattus norvegicus. Nature of the experiment: Compound was tested for hepatoprotective activity against D-GalN-induced cytotoxicity in primary cultured rat hepatocytes at 3 uM dose. The settings on record: Hepatocyte.
For experiment [3], the species on record is Rattus norvegicus. Nature of the experiment: Compound was tested for hepatoprotective activity against D-GalN-induced cytotoxicity in primary cultured rat hepatocytes at 10 uM dose. The note with it: Hepatocyte.
The species named for experiment [4] is Rattus norvegicus. Nature of the experiment: Compound was tested for antioxidative activity using TBA method at a concentration of 200 ug/mL.
Experiment [5] is filed under the species Rattus norvegicus. Nature of the experiment: Compound was tested for hepatoprotective activity against D-GalN-induced cytotoxicity in primary cultured rat hepatocytes at 30 uM dose. The note with it: Hepatocyte.
The species entered for experiment [6] is Rattus norvegicus. Put plainly: Compound was tested for hepatoprotective activity against D-GalN-induced cytotoxicity in primary cultured rat hepatocytes at 100 uM dose. The note with it: Hepatocyte.
The species entered for experiment [7] is Rattus norvegicus. Nature of the experiment: Compound was tested for O2- scavenging activity using NBT method at a concentration of 20 ug/ml.
The species entered for experiment [8] is Rattus norvegicus. Put plainly: Compound was tested for antioxidative activity using TBA method at a concentration of 200 ug/ml.

SMILES strings stand for the structures.

The inhibition is the change of the read-out against control, counted positive when it falls. As a reminder, the Inhibition is the change of the read-out against control, counted positive when it falls. Low readings indicate little suppression, high ones strong suppression. Consider `COc1cc([C@@H]2c3c(cc(OC)c(O)c3OC)C[C@H](CO)[C@H]2CO[C@H]2O[C@@H](CO)[C@@H](O)[C@H](O)[C@@H]2O)cc(OC)c1O`, for which the inhibition in the experiment filed under Rattus norvegicus [1] came out at 58.8%. In the experiment filed under Rattus norvegicus [2], the inhibition at 3 µM stood at 8.3%. In the experiment filed under Rattus norvegicus [3], the inhibition at 10 µM came out at 7.6%. Further, in the experiment filed under Rattus norvegicus [4], the Inhibition was determined as 87.2%. In the experiment filed under Rattus norvegicus [5], the inhibition at 30 µM came to 10.5%. In addition, in the experiment listed under Rattus norvegicus [6], the inhibition at 100 µM was 28.9%.
Consider `Oc1ccc([C@H]2Oc3cc(OC4OCC(O)C(O)C4O)cc(O)c3C[C@@H]2O)cc1O` (stereo partly specified), for which, in the experiment listed under Rattus norvegicus [1], the inhibition was found to be 92.9%. The inhibition at 3 µM in the experiment filed under Rattus norvegicus [2] is 4.8%. In addition, in the experiment listed under Rattus norvegicus [3], the inhibition at 10 µM came out at 8.8%. Moreover, the Inhibition in the experiment filed under Rattus norvegicus [4] was found to be 50.1%. In addition, the inhibition at 30 µM in the experiment filed under Rattus norvegicus [5] was 8.5%. Moreover, the inhibition at 100 µM in the experiment listed under Rattus norvegicus [6] came to 9.4%.
With `O=C1c2c(O)cc(O)cc2O[C@H](c2ccc(O)c(O)c2)[C@H]1O` [(+)-TAXIFOLIN], in the experiment filed under Rattus norvegicus [1], the inhibition is 93.8%. The same molecule returned an Inhibition in the experiment listed under Rattus norvegicus [4] of 37%.
Take `COc1cc([C@H]2c3c(cc(OC)c(O)c3OC)C[C@@H](CO)[C@@H]2CO[C@H]2O[C@@H](CO)[C@@H](O)[C@H](O)[C@@H]2O)cc(OC)c1O`: the inhibition in the experiment listed under Rattus norvegicus [1] was 67.3%. Besides, the inhibition at 3 µM in the experiment filed under Rattus norvegicus [2] was determined as 22.3%. Moreover, in the experiment listed under Rattus norvegicus [3], the inhibition at 10 µM is 24.8%. This molecule returned an Inhibition in the experiment filed under Rattus norvegicus [4] of 96.8%. In addition, in the experiment filed under Rattus norvegicus [5], the inhibition at 30 µM came out at 24.1%. In addition, in the experiment filed under Rattus norvegicus [6], the inhibition at 100 µM amounted to 26.9%.
In the case of `Cc1c(C)c2c(c(C)c1O)CC[C@@](C)(CCC[C@H](C)CCC[C@H](C)CCCC(C)C)O2` [ALPHA-TOCOPHEROL], the Inhibition in the experiment listed under Rattus norvegicus [4] turned out to be 56.7%.
For `C[C@H](CCc1ccc(O)cc1)O[C@@H]1O[C@H](CO[C@@H]2O[C@H](CO)[C@@H](O)[C@@H]2O)[C@H](O)[C@@H](O)[C@H]1O`, in the experiment listed under Rattus norvegicus [1], the inhibition amounted to 5.1%. Moreover, the inhibition at 3 µM in the experiment listed under Rattus norvegicus [2] was found to be 3.4%. Moreover, the inhibition at 10 µM in the experiment listed under Rattus norvegicus [3] amounted to 6.2%. Moreover, the Inhibition in the experiment filed under Rattus norvegicus [4] stood at 98.2%. For the same molecule, in the experiment listed under Rattus norvegicus [5], the inhibition at 30 µM was 7.5%. In the experiment listed under Rattus norvegicus [6], the inhibition at 100 µM worked out at 6.8%.
As for `C[C@H](CCc1ccc(O)cc1)O[C@@H]1O[C@H](CO)[C@@H](O)[C@H](O)[C@H]1O`, the inhibition at 3 µM in the experiment listed under Rattus norvegicus [2] stood at 4.7%. The inhibition at 10 µM in the experiment filed under Rattus norvegicus [3] amounted to 10.1%. Further, in the experiment filed under Rattus norvegicus [5], the inhibition at 30 µM was found to be 4.9%. The inhibition at 100 µM in the experiment listed under Rattus norvegicus [6] was -0.8%.
For the molecule `C[C@@H](CCc1ccc(O)cc1)O[C@@H]1O[C@H](CO[C@@H]2OC[C@](O)(CO)[C@H]2O)[C@H](O)[C@@H](O)[C@H]1O`, the inhibition in the experiment filed under Rattus norvegicus [1] worked out at 10.8%. Moreover, the inhibition at 3 µM in the experiment filed under Rattus norvegicus [2] came to 3.6%. For the same molecule, the inhibition at 10 µM in the experiment filed under Rattus norvegicus [3] amounted to 1.7%. This molecule also came in with an Inhibition in the experiment listed under Rattus norvegicus [4] of 21.8%. Besides, in the experiment listed under Rattus norvegicus [5], the inhibition at 30 µM is 0.7%. The inhibition at 100 µM in the experiment filed under Rattus norvegicus [6] is -4.5%.
Turning to `OC[C@H]1O[C@@H](O[C@@H](CCc2ccc(O)cc2)C[C@H](O)CCc2ccc(O)cc2)[C@H](O)[C@H](O)[C@H]1O`, the inhibition at 3 µM in the experiment filed under Rattus norvegicus [2] was 16.2%. In addition, in the experiment listed under Rattus norvegicus [3], the inhibition at 10 µM worked out at 14.1%. The inhibition at 30 µM in the experiment filed under Rattus norvegicus [5] turned out to be 27.3%. Also, the inhibition at 100 µM in the experiment listed under Rattus norvegicus [6] worked out at 74.7%. Moreover, in the experiment filed under Rattus norvegicus [7], the inhibition is 1%. In the experiment filed under Rattus norvegicus [8], this molecule came in with an Inhibition of 56.3%.
`COc1cc(C(C)(C)C)c(O)c(C(C)(C)C)c1`: in the experiment filed under Rattus norvegicus [4], the Inhibition came out at 88%.
As to `C[C@H](CCc1ccc(O)cc1)O[C@@H]1O[C@H](CO[C@@H]2OC[C@](O)(CO)[C@H]2O)[C@H](O)[C@@H](O)[C@H]1O`, the inhibition in the experiment filed under Rattus norvegicus [1] was 1.8%. For the same molecule, in the experiment filed under Rattus norvegicus [2], the inhibition at 3 µM worked out at 1.4%. Besides, the inhibition at 10 µM in the experiment filed under Rattus norvegicus [3] is -1.6%. Besides, the Inhibition in the experiment listed under Rattus norvegicus [4] worked out at 93.5%. In the experiment listed under Rattus norvegicus [5], the inhibition at 30 µM came to 2.1%. The inhibition at 100 µM in the experiment listed under Rattus norvegicus [6] is -2.3%.
`Cc1cc(C(C)(C)C)c(O)c(C(C)(C)C)c1` [BUTYLATED HYDROXYTOLUENE] had an Inhibition in the experiment listed under Rattus norvegicus [4] of 97%.
As for `OC[C@H]1O[C@@H](O[C@@H](CCc2ccc(O)cc2)C[C@@H](O)CCc2ccc(O)cc2)[C@H](O)[C@H](O)[C@H]1O`, the inhibition at 3 µM in the experiment filed under Rattus norvegicus [2] was 9.9%. In the experiment filed under Rattus norvegicus [3], the inhibition at 10 µM was 7.4%. Moreover, the inhibition at 30 µM in the experiment filed under Rattus norvegicus [5] came to 21.7%. Further, the inhibition at 100 µM in the experiment listed under Rattus norvegicus [6] came out at 37.4%. Besides, in the experiment listed under Rattus norvegicus [7], the inhibition stood at 1.8%. In the experiment listed under Rattus norvegicus [8], this molecule had an Inhibition of 61.8%.
In the case of `C[C@@H](CCc1ccc(O)cc1)O[C@@H]1O[C@H](CO[C@@H]2O[C@@H](CO)[C@H](O)[C@H]2O)[C@@H](O)[C@H](O)[C@H]1O`, in the experiment listed under Rattus norvegicus [1], the inhibition amounted to 4%. In addition, in the experiment filed under Rattus norvegicus [2], the inhibition at 3 µM was found to be 10.1%. Moreover, the inhibition at 10 µM in the experiment filed under Rattus norvegicus [3] came out at 3.6%. Further, the inhibition at 30 µM in the experiment listed under Rattus norvegicus [5] stood at 9.6%. The inhibition at 100 µM in the experiment filed under Rattus norvegicus [6] is 5.4%.
For `OC[C@@]1(O)CO[C@@H](OC[C@H]2O[C@@H](O[C@H](CCCCc3ccc(O)cc3)CCc3ccc(O)cc3)[C@H](O)[C@H](O)[C@H]2O)[C@@H]1O`, the inhibition at 3 µM in the experiment listed under Rattus norvegicus [2] came out at 28.3%. In addition, in the experiment listed under Rattus norvegicus [3], the inhibition at 10 µM came to 38.4%. Further, the inhibition at 30 µM in the experiment listed under Rattus norvegicus [5] stood at 43.9%. Further, the inhibition at 100 µM in the experiment filed under Rattus norvegicus [6] is 55.3%.
